From PMC9649518, “Knockout of ABC transporters by CRISPR/Cas9 contributes to reliable and accurate transporter substrate identification for drug discovery” (Frontiers in Pharmacology, 2022)
Read-outs that look alike come from different tables or passages of the source.

How the values were obtained:
[1] = tested on: Caco^MRP2−/−BCRP−/− cells
Caco-2 WT cells [2] = tested on: Caco-2 WT cells
[3] = Bidirectional transport assay across Caco-2 WT monolayers; conditions: human
Caco-2 WT cells [4] = experiment: as above; conditions: WT Caco-2, 5 μM substrate, n = 3
[5] = Bidirectional transport assay across MRP2/BCRP double KO Caco-2 monolayers; conditions: human; for Papp A→B at 1 h, 5 μM: pH 7.4, Papp A-to-B, Caco^MRP2−/−BCRP−/−, 5 μM substrate, 37°C, HBSS pH 7.4, n = 3
[6] = tested on: Caco^MRP2−/−BCRP−/− cells; experiment: as above; conditions: Caco^MRP2−/−BCRP−/−; 5 μM substrate; 1 h, 37°C, HBSS pH 7.4; n = 3
[7] = Bidirectional transport assay across MRP2 KO Caco-2 monolayers; conditions: human, pH 7.4
[8] = Bidirectional transport assay across P-gp/BCRP double KO Caco-2 monolayers; conditions: human, pH 7.4
[9] = Bidirectional transport assay across P-gp/MRP2 double KO Caco-2 monolayers; conditions: human, pH 7.4
[10] = Bidirectional transport assay, Caco^BCRP−/− and Caco^MRP2−/− cells taken together; assay type: in vitro ADME; conditions: human
Description: (§1) The medium was replaced every second day.
(§2) All these studies were conducted by following similar procedures. […] Then, HBSS was aspirated from both sides.
(§3) The flow rate was 0.3 mL/min.

[11] = Bidirectional transport assay across BCRP KO Caco-2 monolayers; conditions: human; for Papp A→B at 1 h, 5 μM / Papp B→A at 1 h, 5 μM: pH 7.4
[12] = Bidirectional transport assay across P-gp KO Caco-2 monolayers; conditions: human, pH 7.4
[13] = tested on: BCRP, MRP2, and MRP2/BCRP knock-out cell lines mediated by ZFN; design: method as in Sampson et al., 2015; conditions: ref Sampson et al., 2015, cited from earlier work
[14] = Bidirectional transport assay, P-gp single- and double-KO cells taken together; assay type: in vitro ADME; conditions: human, pH 7.4, 5 μM substrate
Description: as §1, §2, §3

## 5-(and-6)-carboxy-2′,7′-dichlorofluorescein [CDCF]
Caco^Pgp−/−MRP2−/− cells
  Papp A-to-B: 2.41 ± 0.55 ×10^−6cm/s
  Papp B-to-A: 1.64 ± 0.46 ×10^−6cm/s
[1]
  Papp A-to-B: 3.48 ± 0.51 ×10^−6cm/s
  Papp B-to-A: 3.05 ± 0.80 ×10^−6cm/s
Caco^BCRP−/− cells
  Papp A-to-B: 2.14 ± 0.08 ×10^−6cm/s
  Papp B-to-A: 10.63 ± 0.96 ×10^−6cm/s
Caco^Pgp−/−BCRP−/− cells
  Papp A-to-B: 2.02 ± 0.20 ×10^−6cm/s
  Papp B-to-A: 9.42 ± 0.55 ×10^−6cm/s
Caco-2 WT cells [2]
  Papp A-to-B: 1.05 ± 0.34 ×10^−6cm/s
  Papp B-to-A: 8.25 ± 0.63 ×10^−6cm/s
Caco^Pgp−/− cells
  Papp A-to-B: 1.94 ± 0.10 ×10^−6cm/s
  Papp B-to-A: 11.95 ± 1.61 ×10^−6cm/s
Caco^MRP2−/− cells
  Papp A-to-B: 2.33 ± 0.62 ×10^−6cm/s
  Papp B-to-A: 1.10 ± 0.13 ×10^−6cm/s

## CC(C)CN(C[C@@H](O)[C@H](Cc1ccccc1)NC(=O)O[C@H]1CO[C@H]2OCC[C@H]21)S(=O)(=O)c1ccc(N)cc1 [Darunavir]
[3]; Caco-2, pH 7.4, Papp A-to-B, WT Caco-2, 5 μM substrate, 1 h, 37°C, HBSS pH 7.4, n = 3
  Papp A→B at 1 h, 5 μM: 2.6 ×10⁻⁶ cm/s
[3]; Caco-2, pH 7.4, Papp B-to-A, WT Caco-2, 5 μM substrate, 1 h, 37°C, HBSS pH 7.4, n = 3
  Papp B→A at 1 h, 5 μM: 26.6 ×10⁻⁶ cm/s
Caco-2 WT cells [4]; 1 h, 37°C, HBSS pH 7.4
  Papp A-to-B: 2.65 ± 0.22 ×10^−6cm/s
  Papp B-to-A: 26.59 ± 2.06 ×10^−6cm/s
[5]; pH 7.4
  Papp B→A at 1 h, 5 μM: 27 ± 0.79 ×10⁻⁶ cm/s
[5]
  Papp A→B at 1 h, 5 μM: 4.4 ×10⁻⁶ cm/s
[6]
  Papp A-to-B: 4.43 ± 0.63 ×10^−6cm/s
[7]
  Papp A→B at 1 h, 5 μM: 1.9 ± 0.14 ×10⁻⁶ cm/s
  Papp B→A at 1 h, 5 μM: 29.84 ± 0.24 ×10⁻⁶ cm/s
[8]
  Papp A→B at 1 h, 5 μM: 12.6 ± 1.31 ×10⁻⁶ cm/s
  Papp B→A at 1 h, 5 μM: 11.5 ± 0.38 ×10⁻⁶ cm/s
[9]
  Papp A→B at 1 h, 5 μM: 10.1 ± 0.44 ×10⁻⁶ cm/s
  Papp B→A at 1 h, 5 μM: 10.4 ± 0.2 ×10⁻⁶ cm/s
[10]; pH 7.4, read-out: Papp (A-to-B) permeability
  Papp A→B at 1 h, 5 μM: 1.7 to 1.8 ×10⁻⁶ cm/s
[10]; pH 7.4, read-out: Papp (B-to-A) permeability
  Papp B→A at 1 h, 5 μM: 29.8 to 34.3 ×10⁻⁶ cm/s
[11]
  Papp A→B at 1 h, 5 μM: 1.75 ± 0.13 ×10⁻⁶ cm/s
  Papp B→A at 1 h, 5 μM: 34.32 ± 0.19 ×10⁻⁶ cm/s
[12]
  Papp A→B at 1 h, 5 μM: 15.1 ± 0.68 ×10⁻⁶ cm/s
  Papp B→A at 1 h, 5 μM: 13.6 ± 0.8 ×10⁻⁶ cm/s

## C[C@H]1O[C@@H](O[C@H]2[C@@H](O)C[C@H](O[C@H]3[C@@H](O)C[C@H](O[C@H]4CC[C@@]5(C)[C@H](CC[C@@H]6[C@@H]5C[C@@H](O)[C@]5(C)[C@@H](C7=CC(=O)OC7)CC[C@]65O)C4)O[C@@H]3C)O[C@@H]2C)C[C@H](O)[C@@H]1O [Digoxin]
[3]; Caco-2, pH 7.4
  Papp A→B at 1 h, 5 μM: 1.48 ± 0.21 ×10⁻⁶ cm/s
  Papp B→A at 1 h, 5 μM: 9.33 ± 1.34 ×10⁻⁶ cm/s
[3]; Caco-2, pH 7.4, Efflux ratio, WT Caco-2, 5 μM substrate, Papp(B-to-A)/Papp(A-to-B), n = 3
  efflux ratio at 1 h, 5 μM: 6.4
Caco-2 WT cells [4]; Papp(B-to-A)/Papp(A-to-B)
  Efflux ratio: 6.38 ± 1.21
[5]; pH 7.4
  Papp B→A at 1 h, 5 μM: 17.9 ± 0.63 ×10⁻⁶ cm/s
  efflux ratio at 1 h, 5 μM: 9.36 ± 3.17
[5]
  Papp A→B at 1 h, 5 μM: 2.03 ± 0.55 ×10⁻⁶ cm/s
[13]; BCRP, MRP2, and MRP2/BCRP knock-out cell lines mediated by ZFN
  Papp A-to-B: ~ 0.25 × 10^–6 cm/s
[13]; starting value before knock-out ('from')
  Papp A-to-B: 0.99 × 10^–6 cm/s
[7]
  Papp A→B at 1 h, 5 μM: 2.05 ± 0.51 ×10⁻⁶ cm/s
  Papp B→A at 1 h, 5 μM: 17.6 ± 1.13 ×10⁻⁶ cm/s
  efflux ratio at 1 h, 5 μM: 9.08 ± 2.87
[14]
  efflux ratio at 1 h, 5 μM: 1
[8]
  Papp A→B at 1 h, 5 μM: 2.42 ± 0.64 ×10⁻⁶ cm/s
  Papp B→A at 1 h, 5 μM: 2.08 ± 0.12 ×10⁻⁶ cm/s
  efflux ratio at 1 h, 5 μM: 0.9 ± 0.21
[9]
  Papp A→B at 1 h, 5 μM: 1.95 ± 0.92 ×10⁻⁶ cm/s
  Papp B→A at 1 h, 5 μM: 1.87 ± 0.4 ×10⁻⁶ cm/s
  efflux ratio at 1 h, 5 μM: 1.05 ± 0.29
[11]
  Papp A→B at 1 h, 5 μM: 1.66 ± 0.42 ×10⁻⁶ cm/s
  Papp B→A at 1 h, 5 μM: 14.8 ± 1.85 ×10⁻⁶ cm/s
[11]; pH 7.4, Efflux ratio, Caco^BCRP−/−, 5 μM substrate, n = 3
  efflux ratio at 1 h, 5 μM: 9.11 ± 1.66
[12]
  Papp A→B at 1 h, 5 μM: 1.42 ± 0.2 ×10⁻⁶ cm/s
  Papp B→A at 1 h, 5 μM: 1.67 ± 0.23 ×10⁻⁶ cm/s
  efflux ratio at 1 h, 5 μM: 1.2 ± 0.21
